Where a name gives a salt, the structure may show the parent alone.
System: lean overnight fasted rats
Test: Fasted-refed acute feeding assay (reduction of food intake)
Format: in vivo, rat
Conditions: 10 mg/kg p.o., single dose, measured at time points from 30 to 240 minutes
Excerpt: Evaluation of Compound's Efficacy on the Reduction of Food Intake (Suppression of Appetite) in Lean Overnight Fasted Rats
Fasted-Refed Acute Feeding Assay
The purpose of this protocol is to determine the effect of a single dose of an unknown compound on food consumption of lean overnight fasted rats. The fasted-refed rat model is frequently used in the field of obesity to identify compounds with potential for anorectic effects. This animal model has been successfully used in the identification and characterization of the efficacy profile of compounds that are or have been used in the management of body weight in obese humans (see, e.g., Balvet et al., Gen. Pharmacol. 13:293-297, 1982; Grignaschi et al., Br. J. Pharmacol. 127:1190-1194, 1999; McTavish and Heel, Drug 43:713-733, 1992; Rowland et al., Life Sci. 36:2295-2300, 1985). […]
The vehicle test: The rats are grouped based upon their performance on a vehicle test. […] After 1 hour, the spillage is returned to the food jar and the amount of food consumed is determined. […]
The efficacy test: The rats are fasted overnight during the dark phase (total of approx. 16-18 hr). […] Food intake is recorded 30, 60, 90, 180, and 240 minutes post-food return. […] The amount of food consumed is determined for each time point. Difference between treatment group is determined using appropriate statistical analysis.

In the case of `Cc1c(C(=O)NN2CCCCC2)cc(-c2ccc(Cl)cc2)n1-c1ccccc1Cl` [Entry 23, 1-(2-chlorophenyl)-5-(4-chlorophenyl)-2-methyl-N-(1-piperidinyl)-1H-pyrrole-3-carboxamide hydrochloride], the “food consumption was reduced (relative to the food consumption observed for the vehicle control group)” value is reported as “up to 25%”.

For `COc1ccc(-c2c(C)c(C(=O)NNc3ccc(C(F)(F)F)cc3)c(C)n2-c2ccccc2Cl)cc1.Cl` [Entry 43, 1-(2-chlorophenyl)-5-(4-methoxyphenyl)-2,4-dimethyl-N′-[4-(trifluoromethyl)phenyl]-1H-pyrrole-3-carbohydrazide hydrochloride], the “food consumption was reduced (relative to the food consumption observed for the vehicle control group)” value was “up to 35%”.

Source: patent publication US20040267028A1, “Preparation and use of pyrrole derivatives for treating obesity” (priority 2001, published 2004)
